Measured values from PubChem BioAssay (NCI).
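96-well plates; 48 h exposure; 5 concentrations. Endpoints by linear interpolation between flanking doses. Not reached: highest tested concentration assigned. At the TGI there is no net growth.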

Tests used:
Experiment in all cases: NCI anticancer screen, dose series, 48 h
HT29 colon = tested on: HT29 colon
NCI/ADR-RES ovarian = tested on: NCI/ADR-RES ovarian
UO-31 renal = tested on: UO-31 renal
T-47D breast = tested on: T-47D breast
SK-MEL-5 melanoma = tested on: SK-MEL-5 melanoma
MALME-3M melanoma = tested on: MALME-3M melanoma
SF-295 CNS = tested on: SF-295 CNS
M14 melanoma = tested on: M14 melanoma
786-0 renal = tested on: 786-0 renal
SK-MEL-2 melanoma = tested on: SK-MEL-2 melanoma
MCF7 breast = tested on: MCF7 breast
SK-MEL-28 melanoma = tested on: SK-MEL-28 melanoma
ACHN renal = tested on: ACHN renal
A498 renal = tested on: A498 renal
MDA-N = tested on: MDA-N
SR leukemia = tested on: SR leukemia
PC-3 prostate = tested on: PC-3 prostate
OVCAR-5 ovarian = tested on: OVCAR-5 ovarian
EKVX NSCLC = tested on: EKVX NSCLC
CAKI-1 renal = tested on: CAKI-1 renal
OVCAR-4 ovarian = tested on: OVCAR-4 ovarian
HCT-15 colon = tested on: HCT-15 colon
SN12C renal = tested on: SN12C renal
A549 NSCLC = tested on: A549 NSCLC
HOP-92 NSCLC = tested on: HOP-92 NSCLC
SK-OV-3 ovarian = tested on: SK-OV-3 ovarian
OVCAR-3 ovarian = tested on: OVCAR-3 ovarian
HS 578T breast = tested on: HS 578T breast
BT-549 breast = tested on: BT-549 breast
IGROV1 ovarian = tested on: IGROV1 ovarian
DU-145 prostate = tested on: DU-145 prostate
KM12 colon = tested on: KM12 colon
OVCAR-8 ovarian = tested on: OVCAR-8 ovarian
SW-620 colon = tested on: SW-620 colon
NCI-H522 lung = tested on: NCI-H522 lung
HL-60(TB) leukemia = tested on: HL-60(TB) leukemia
MDA-MB-231 breast = tested on: MDA-MB-231 breast
SF-539 CNS = tested on: SF-539 CNS
HOP-62 NSCLC = tested on: HOP-62 NSCLC
NCI-H23 lung = tested on: NCI-H23 lung
COLO 205 colon = tested on: COLO 205 colon
NCI-H226 lung = tested on: NCI-H226 lung
MDA-MB-435 = tested on: MDA-MB-435
SNB-19 CNS = tested on: SNB-19 CNS
UACC-257 melanoma = tested on: UACC-257 melanoma
UACC-62 melanoma = tested on: UACC-62 melanoma
MOLT-4 leukemia = tested on: MOLT-4 leukemia
SF-268 CNS = tested on: SF-268 CNS
RPMI-8226 leukemia = tested on: RPMI-8226 leukemia
U251 CNS = tested on: U251 CNS
TK-10 renal = tested on: TK-10 renal
HCT-116 colon = tested on: HCT-116 colon
RXF 393 renal = tested on: RXF 393 renal
HCC-2998 colon = tested on: HCC-2998 colon
NCI-H460 lung = tested on: NCI-H460 lung
SNB-75 CNS = tested on: SNB-75 CNS
K-562 leukemia = tested on: K-562 leukemia
LOX IMVI melanoma = tested on: LOX IMVI melanoma
CCRF-CEM leukemia = tested on: CCRF-CEM leukemia

`C=CCN1C[C@H](C)N([C@H](c2ccc(C(=O)N(CC)CC)cc2)c2cccc(OC)c2)C[C@H]1C` was tested, and the TGI (HT29 colon) was > 100 µM, the TGI (NCI/ADR-RES ovarian) was > 100 µM and the TGI (UO-31 renal) was > 100 µM. For the same molecule, the TGI (T-47D breast) was 65.5 µM, the TGI (SK-MEL-5 melanoma) was 27.6 µM and the TGI (MALME-3M melanoma) was 47 µM. For the same molecule, the TGI (SF-295 CNS) was 58.3 µM, the TGI (M14 melanoma) was > 100 µM and the TGI (786-0 renal) was > 100 µM. For the same molecule, the TGI (SK-MEL-2 melanoma) was > 100 µM, the TGI (MCF7 breast) was > 100 µM and the TGI (SK-MEL-28 melanoma) was > 100 µM. For the same molecule, the TGI (ACHN renal) was > 100 µM, the TGI (A498 renal) was > 100 µM and the TGI (MDA-N) was > 100 µM. For the same molecule, the TGI (SR leukemia) was > 100 µM, the TGI (PC-3 prostate) was > 100 µM and the TGI (OVCAR-5 ovarian) was > 100 µM. The TGI (EKVX NSCLC) was > 100 µM, the TGI (CAKI-1 renal) was > 100 µM and the TGI (OVCAR-4 ovarian) was > 100 µM. The TGI (HCT-15 colon) was > 100 µM, the TGI (SN12C renal) was > 100 µM and the TGI (A549 NSCLC) was > 100 µM. The TGI (HOP-92 NSCLC) was 63.9 µM, the TGI (SK-OV-3 ovarian) was > 100 µM and the TGI (OVCAR-3 ovarian) was 50.5 µM. For the same molecule, the TGI (HS 578T breast) was > 100 µM, the TGI (BT-549 breast) was > 100 µM and the TGI (IGROV1 ovarian) was > 100 µM. For the same molecule, the TGI (DU-145 prostate) was > 100 µM, the TGI (KM12 colon) was > 100 µM and the TGI (OVCAR-8 ovarian) was > 100 µM. The TGI (SW-620 colon) was > 100 µM, the TGI (NCI-H522 lung) was > 100 µM and the TGI (HL-60(TB) leukemia) was 64.9 µM. The TGI (MDA-MB-231 breast) was > 100 µM, the TGI (SF-539 CNS) was > 100 µM and the TGI (HOP-62 NSCLC) was > 100 µM. The TGI (NCI-H23 lung) was > 100 µM, the TGI (COLO 205 colon) was 38.7 µM and the TGI (NCI-H226 lung) was 95.6 µM. The TGI (MDA-MB-435) was > 100 µM, the TGI (SNB-19 CNS) was > 100 µM and the TGI (UACC-257 melanoma) was 52.3 µM. For the same molecule, the TGI (UACC-62 melanoma) was > 100 µM, the TGI (MOLT-4 leukemia) was 99.5 µM and the TGI (SF-268 CNS) was > 100 µM. The TGI (RPMI-8226 leukemia) was > 100 µM, the TGI (U251 CNS) was > 100 µM and the TGI (TK-10 renal) was > 100 µM. For the same molecule, the TGI (HCT-116 colon) was > 100 µM.

In the case of `Oc1ccc2ccccc2c1C=NCc1c(O)ccc2ccccc12`, the TGI (HT29 colon) was > 100 µM, the TGI (NCI/ADR-RES ovarian) was > 100 µM and the TGI (UO-31 renal) was > 100 µM. The TGI (RXF 393 renal) was 9.34 µM, the TGI (T-47D breast) was > 100 µM and the TGI (SK-MEL-5 melanoma) was > 100 µM. For the same molecule, the TGI (MALME-3M melanoma) was > 100 µM, the TGI (SF-295 CNS) was > 100 µM and the TGI (M14 melanoma) was > 100 µM. For the same molecule, the TGI (786-0 renal) was > 100 µM, the TGI (SK-MEL-2 melanoma) was > 100 µM and the TGI (MCF7 breast) was > 100 µM. For the same molecule, the TGI (SK-MEL-28 melanoma) was > 100 µM, the TGI (ACHN renal) was > 100 µM and the TGI (A498 renal) was 74.5 µM. The TGI (MDA-N) was > 100 µM, the TGI (HCC-2998 colon) was > 100 µM and the TGI (SR leukemia) was > 100 µM. The TGI (PC-3 prostate) was > 100 µM, the TGI (OVCAR-5 ovarian) was > 100 µM and the TGI (NCI-H460 lung) was > 100 µM. The TGI (EKVX NSCLC) was 70.7 µM, the TGI (CAKI-1 renal) was > 100 µM and the TGI (OVCAR-4 ovarian) was > 100 µM. The TGI (HCT-15 colon) was > 100 µM, the TGI (SN12C renal) was > 100 µM and the TGI (A549 NSCLC) was > 100 µM. The TGI (SNB-75 CNS) was > 100 µM, the TGI (HOP-92 NSCLC) was > 100 µM and the TGI (SK-OV-3 ovarian) was > 100 µM. The TGI (OVCAR-3 ovarian) was > 100 µM, the TGI (HS 578T breast) was > 100 µM and the TGI (BT-549 breast) was > 100 µM. For the same molecule, the TGI (IGROV1 ovarian) was > 100 µM, the TGI (DU-145 prostate) was > 100 µM and the TGI (K-562 leukemia) was > 100 µM. The TGI (KM12 colon) was > 100 µM, the TGI (LOX IMVI melanoma) was > 100 µM and the TGI (CCRF-CEM leukemia) was > 100 µM. For the same molecule, the TGI (OVCAR-8 ovarian) was > 100 µM, the TGI (SW-620 colon) was > 100 µM and the TGI (NCI-H522 lung) was 50.5 µM. The TGI (MDA-MB-231 breast) was > 100 µM, the TGI (SF-539 CNS) was > 100 µM and the TGI (HOP-62 NSCLC) was > 100 µM. The TGI (NCI-H23 lung) was > 100 µM, the TGI (COLO 205 colon) was > 100 µM and the TGI (MDA-MB-435) was > 100 µM. The TGI (SNB-19 CNS) was > 100 µM, the TGI (UACC-257 melanoma) was > 100 µM and the TGI (UACC-62 melanoma) was > 100 µM. The TGI (MOLT-4 leukemia) was > 100 µM, the TGI (SF-268 CNS) was > 100 µM and the TGI (RPMI-8226 leukemia) was > 100 µM. The TGI (U251 CNS) was > 100 µM, the TGI (TK-10 renal) was > 100 µM and the TGI (HCT-116 colon) was > 100 µM.

In the case of `CCc1c(CNC2=NCCN2)c(CC)c(CNC2=NCCN2)c(CC)c1CNC1=NCCN1`, the TGI (HT29 colon) was > 100 µM, the TGI (NCI/ADR-RES ovarian) was > 100 µM and the TGI (UO-31 renal) was > 100 µM. The TGI (RXF 393 renal) was > 100 µM, the TGI (T-47D breast) was > 100 µM and the TGI (SK-MEL-5 melanoma) was > 100 µM. The TGI (MALME-3M melanoma) was > 100 µM, the TGI (SF-295 CNS) was > 100 µM and the TGI (M14 melanoma) was > 100 µM. For the same molecule, the TGI (786-0 renal) was > 100 µM, the TGI (SK-MEL-2 melanoma) was > 100 µM and the TGI (MCF7 breast) was > 100 µM. For the same molecule, the TGI (SK-MEL-28 melanoma) was > 100 µM, the TGI (ACHN renal) was > 100 µM and the TGI (A498 renal) was > 100 µM. For the same molecule, the TGI (MDA-N) was > 100 µM, the TGI (HCC-2998 colon) was > 100 µM and the TGI (SR leukemia) was > 100 µM. The TGI (PC-3 prostate) was > 100 µM, the TGI (OVCAR-5 ovarian) was > 100 µM and the TGI (NCI-H460 lung) was > 100 µM. The TGI (EKVX NSCLC) was > 100 µM, the TGI (CAKI-1 renal) was > 100 µM and the TGI (OVCAR-4 ovarian) was > 100 µM. For the same molecule, the TGI (HCT-15 colon) was > 100 µM, the TGI (SN12C renal) was > 100 µM and the TGI (A549 NSCLC) was > 100 µM. For the same molecule, the TGI (SNB-75 CNS) was > 100 µM, the TGI (HOP-92 NSCLC) was > 100 µM and the TGI (SK-OV-3 ovarian) was > 100 µM. The TGI (OVCAR-3 ovarian) was > 100 µM, the TGI (HS 578T breast) was > 100 µM and the TGI (BT-549 breast) was > 100 µM. For the same molecule, the TGI (IGROV1 ovarian) was > 100 µM, the TGI (DU-145 prostate) was > 100 µM and the TGI (K-562 leukemia) was > 100 µM. For the same molecule, the TGI (KM12 colon) was > 100 µM, the TGI (CCRF-CEM leukemia) was > 100 µM and the TGI (OVCAR-8 ovarian) was > 100 µM. The TGI (SW-620 colon) was > 100 µM, the TGI (NCI-H522 lung) was > 100 µM and the TGI (SF-539 CNS) was > 100 µM. For the same molecule, the TGI (HOP-62 NSCLC) was > 100 µM, the TGI (NCI-H23 lung) was > 100 µM and the TGI (COLO 205 colon) was > 100 µM. For the same molecule, the TGI (NCI-H226 lung) was > 100 µM, the TGI (MDA-MB-435) was > 100 µM and the TGI (SNB-19 CNS) was > 100 µM. For the same molecule, the TGI (UACC-257 melanoma) was > 100 µM, the TGI (UACC-62 melanoma) was > 100 µM and the TGI (MOLT-4 leukemia) was > 100 µM. The TGI (SF-268 CNS) was > 100 µM, the TGI (RPMI-8226 leukemia) was > 100 µM and the TGI (U251 CNS) was > 100 µM. The TGI (TK-10 renal) was > 100 µM and the TGI (HCT-116 colon) was > 100 µM.
